Data as given in US12486279B2, “Indole alkaloid with fungicidal effect” (priority 2020, dated 2025).
≈ marks a conversion by molar mass, not a printed value. Like-named read-outs stand apart in the source and are kept apart here.

Columns and labels:
[1] = test system: small fish; conditions: cited from earlier work
[2] = test system: Fusarium oxysporum; assay: Minimum inhibitory concentration (MIC), Fusarium oxysporum; type: cell-based; conditions: for Trend of absorbance with concentration: FIG. 6, 2 days; for Growth of the fungus on plates: 15.62-2000 mg/mL
[3] = test system: various fish species; conditions: 48 to 96 h after exposure; cited from earlier work
[4] = test system: Colletotrichum gloeosporioides; assay: Minimum inhibitory concentration (MIC), triphenyl tetrazolium chloride reduction, Colletotrichum gloeosporioides; type: cell-based; conditions: for Growth of the fungus on plates: 7.81 to 250 mg/mL, analyst 1; for Growth of the fungus on plates / Absorbance compared with the control: both days; for MIC: Colletotrichum gloeosporioides; for Absorbance compared with the control: all 8 concentrations
Protocol: First, its effect on the growth of samples of Colletotrichum gloeosporioides was assessed. The weighting of the activity was established in a spectrophotometric model through the reduction of Triphenyl Tetrazolium Chloride as a measure of […] metabolism (oxide reduction system). The C. gloeosporioides samples were incubated for 24 h at 37° C. in the presence of increasing amounts of Andranone and the control agents Chlorothalonil and Mancozeb. After the indicated time, the amount of formazan produced was assessed by colorimetry, which is indicative of the amount of viable fungal cells after the treatments.

[5] = acidic or neutral conditions; cited from earlier work
[6] = test system: Daphnia magna; conditions: cited from earlier work
[7] = test system: agricultural workers; conditions: exposed agricultural workers (Dennis et al. 2010); cited from earlier work
[8] = test system: women exposed to Mancozeb; conditions: exposed women (Van Wendel de Joode et al. 2014); cited from earlier work
[9] = 6 technical replicates, 2 days, with standard deviation, 24 h at 37° C.

## N#Cc1c(Cl)c(Cl)c(Cl)c(C#N)c1Cl [Chlorothalonil, tetrachloro-isophthalonitrile]
[1]
  Concentration decreasing eggs per spawning, hatchability of eggs and survival of the fry: 6.5 ng/mL
[2]
  Trend of absorbance with concentration: trend similar to that of Mancozeb
[2]; Fusarium oxysporum, average of a biological replica on 2 different days
  MIC: 1 mg/mL (≈ 3.76 mM)
[2]; at the concentration at which the MIC was established, average of 2 days
  Absorbance (570 nm): 0.45 ± 0.04
[2]; class from MIC
  Inhibition Type: Moderate (a moderate inhibition occurs in compounds with a MIC between 0.6 to 1 mg/mL)
[2]; day 1
  Growth of the fungus on plates: the fungus was not able to grow in the highest concentrations of this fungicide
[2]; day 2
  Growth of the fungus on plates: a slight growth of the fungus was observed, mainly at concentrations of 125 to 2000 mg/mL
[3]
  Median lethal toxicity values (LC50): less than 20 μg/L
[4]
  Growth of the fungus on plates: the fungus was not able to grow in any of the evaluated concentrations
  Absorbance compared with the control: lower absorbances than the control in the 8 concentrations
[4]; 6 technical replicates, 2 days, with standard deviation, 24 h at 37° C., read-out: Minimum inhibitory concentration (MIC), Average Analyst 1
  MIC: 7.8 mg/mL (≈ 29.3 mM)
[4]; 6 technical replicates, 2 days, with standard deviation, 24 h at 37° C., read-out: Minimum inhibitory concentration (MIC), Average Analyst 2
  MIC: 23.4 ± 22.1 mg/mL (≈ 88 mM)
[4]; average of 2 analysts, with standard deviation, read-out: Minimum inhibitory concentration (MIC), Average
  MIC: 15.6 ± 11 mg/mL (≈ 58.7 mM)
[5]
  Stability to hydrolysis: stable to hydrolysis
[6]
  Concentration causing a delay in reproduction: 32 ng/mL

## Mancozeb
[2]
  Trend of absorbance with concentration: the absorbance increases as the concentration of this compound increase
[2]; both days, no change in salt color
  Growth of the fungus on plates: a slight growth of the fungus was observed, mainly at concentrations of 250 to 2000 mg/mL
[7]
  Risk of developing cutaneous melanoma: significantly increases the risk of developing cutaneous melanoma
[4]; [9]
  Minimum inhibitory concentration (MIC), Average Analyst 1: 7.8 ± 0.0 mg/mL
  Minimum inhibitory concentration (MIC), Average Analyst 2: 15.6 ± 11.0 mg/mL
[4]
  Growth of the fungus on plates: no growth of the fungus was observed in any of the concentrations evaluated
  Absorbance compared with the control: the absorbance is lower compared to the absorbance of the control
[4]; average of 2 analysts, with standard deviation
  Minimum inhibitory concentration (MIC), Average: 11.7 ± 5.5 mg/mL
[8]
  Ethylene thiourea (ETU) in urine: elevated levels of ethylene thiourea in urine
